In paper PMC6452631 (Journal of medicinal chemistry, 2017):
Peptide text beside a SMILES is read from it. * marks the point of attachment. Cbz = O=C(OCc1ccccc1)*; Acryloyl = C=CC(=O)*

Key:
hTG2 [1] = biological target: T1, hTG2 (Homo sapiens, UniProt P21980); assay: Colorimetric transamidase activity assay
T1 sequence (P21980 1-687): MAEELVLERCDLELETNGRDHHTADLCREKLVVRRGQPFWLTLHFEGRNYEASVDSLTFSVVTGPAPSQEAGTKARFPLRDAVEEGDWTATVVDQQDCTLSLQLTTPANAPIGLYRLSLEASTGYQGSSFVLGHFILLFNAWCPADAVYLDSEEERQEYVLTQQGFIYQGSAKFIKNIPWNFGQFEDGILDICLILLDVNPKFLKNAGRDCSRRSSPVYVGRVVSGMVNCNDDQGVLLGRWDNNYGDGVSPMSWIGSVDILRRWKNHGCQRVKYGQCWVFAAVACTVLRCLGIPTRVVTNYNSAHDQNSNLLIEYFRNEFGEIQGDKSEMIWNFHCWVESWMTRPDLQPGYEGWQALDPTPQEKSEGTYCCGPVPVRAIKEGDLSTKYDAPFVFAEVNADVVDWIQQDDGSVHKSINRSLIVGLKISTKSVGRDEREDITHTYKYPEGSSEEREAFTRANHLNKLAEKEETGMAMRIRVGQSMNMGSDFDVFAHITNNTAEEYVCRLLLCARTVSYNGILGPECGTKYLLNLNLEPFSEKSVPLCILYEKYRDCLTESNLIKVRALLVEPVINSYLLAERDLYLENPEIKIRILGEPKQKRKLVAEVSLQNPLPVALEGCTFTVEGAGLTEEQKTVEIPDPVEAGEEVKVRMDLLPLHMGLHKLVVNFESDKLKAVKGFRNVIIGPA

hTG2 [2] = biological target: T1, hTG2; details: pH 6.5
gplTG2 = details: cited from earlier work; for K1 values: gplTG2, in words
hTG2 [3] = biological target: T1, hTG2; assay: Inhibition irreversibility; type: biochemical; details: compared to uninhibited hTG2
hTG2 [4] = biological target: T1, hTG2; assay: In vitro GTP binding assay; details: inhibitor at 2KI, 30 min, 25 °C; 3 μM BODIPY GTP-γ-S
[5] = system: epidermal cancer stem (ECS) cells (SCC-13); assay: Cell invasion assay; type: cell-based, human
[6] = system: epidermal cancer stem (ECS) cells; details: cited from earlier work
[7] = system: mouse xenograft tumors initiated by injection of cancer stem cells; details: intraperitoneal injection, 20 mg/kg; cited from earlier work

## C=CC(=O)NCCCC[C@H](NC(=O)OCc1ccccc1)C(=O)N1CCN(S(=O)(=O)c2cccc3ccccc23)CC1 [Compound 30, (S)-Benzyl 6-Acrylamido-1-(4-(naphthalen-1-ylsulfonyl)piperazin-1-yl)-1-oxohexan-2-yl-carbamate]
hTG2 [1]; hTG2
  kinact less than that of 13: more than 3 fold

## C=CC(=O)NCCCC[C@H](NC(=O)OCc1ccccc1)C(=O)N1CCOCC1 [Compound 59]
hTG2 [2]
  kinact: 0.0245 s⁻¹

## C=CC(=O)NCCCC[C@H](NC(=O)OCc1ccccc1)C(=O)NCC(=O)O [Compound 2, (S)-2-(6-Acrylamido-2-(((benzyloxy)carbonyl)amino)-hexanamido)acetic Acid] (Cbz-Lys(Acryloyl)-Gly-OH)
gplTG2
  K1 values: high nanomolar range
gplTG2; gplTG2
  efficiency constants (kinact/KI): 10^6 M^−1 min^−1

## C=CC(=O)NCCCC[C@H](NC(=O)OCc1ccccc1)C(=O)N1CCN(S(=O)(=O)c2cccc3c(N(C)C)cccc23)CC1 [Compound 13, (S)-Benzyl (6-Acrylamido-1-(4-((5-(dimethylamino)naphthalen-1-yl)sulfonyl)piperazin-1-yl)-1-oxohexan-2-yl)carbamate]
hTG2 [1]
  kinact/KI: > 1670 M⁻¹ s⁻¹
hTG2 [1]; hTG2
  reduction in the inhibition binding constant compared to 3: greater than 2 fold
hTG2 [3]
  recovered hTG2 activity after filtration (10 kDa cutoff) and dilution: no recovered activity
hTG2 [4]
  GTP binding ability of hTG2 after incubation with inhibitor: abolishing GTP binding nearly completely
[5]; three-parameter sigmoidal fit of invasion data, maximum fixed at 100
  Hill slope: 1.16 ± 0.13

## C=CC(=O)NCCCC[C@H](NC(=O)OCc1ccccc1)C(N)=O [Compound 4, (S)-Benzyl-(6-acrylamido-1-amino-1-oxohexan-2-yl)carbamate]
hTG2 [4]
  GTP binding ability of hTG2 after incubation with inhibitor: able to abolish GTP binding

## C=CC(=O)NCCCC[C@H](NC(=O)OCc1ccccc1)C(=O)NCCOCCOCCNS(=O)(=O)c1cccc2c(N(C)C)cccc12 [Compound 3, (S)-Benzyl-(1-((5-(dimethylamino)naphthalene)-1-sulfonamido)-10,17-dioxo-3,6-dioxa-9,16-diazanonadec-18-en-11-yl)carbamate]
gplTG2; gplTG2
  kinact: 0.483 min⁻¹
hTG2 [1]; hTG2 compared to gplTG2
  increase in overall efficiency (kinact/KI), hTG2 versus gplTG2: 5 fold
[6]; 20 μM
  ECS cell proliferation and survival: reduced ECS cell proliferation and survival
[6]; TG2 knockout ECS cells
  effect in TG2 knockout ECS cells: no effect
[7]
  growth of mouse xenograft tumors: reduced the growth
[5]; Homo sapiens, SCC-13, 18 h, read-out: EC50, inhibition of ECS cell invasion
  EC50: > 20 µM

## C=CC(=O)NCCCC[C@H](NC(=O)OCc1ccccc1)C(=O)N1CCN(C(=O)c2cccc3ccccc23)CC1 [Compound 49, (S)-Benzyl (1-(4-(1-Naphthoyl)piperazin-1-yl)-6-acrylamido-1-ox-ohexan-2-yl)carbamate]
hTG2 [1]
  kinact/KI: > 1670 M⁻¹ s⁻¹
hTG2 [4]
  GTP binding ability of hTG2 after incubation with inhibitor: abolishing GTP binding nearly completely

## C=CC(=O)NCCCC[C@H](NC(=O)OCc1ccccc1)C(=O)O [Compound 1, (S)-6-Acrylamido-2-(((benzyloxy)carbonyl)amino)hexanoic Acid]
gplTG2
  K1 values: high nanomolar range

## NC(=O)CI [iodoacetamide, reference compound]
hTG2 [1]; in words
  inhibition of hTG2 acyltransferase activity: irreversible inhibition
hTG2 [4]
  GTP binding ability of hTG2 after incubation with inhibitor: did not perturb its GTP-binding ability
